Measurements from publication PMC7337064, “Parsing the functional specificity of Siderocalin/Lipocalin 2/NGAL for siderophores and related small-molecule ligands” (Journal of Structural Biology: X, 2019).

Experiments:
Scn [1] = molecular target: T1, Scn (Homo sapiens, UniProt P80188); assay: Fe-ENT/c-di-GMP competition mixing experiment (ultrafilter retentates); type: binding; settings: Scn premixed with 25-fold molar excess c-di-GMP, then equimolar Fe-ENT, washed in ultrafilter
T1 construct: made in house
Excerpt: Li and coworkers reported that c-di-GMP could compete with bacterial ferric siderophores for Scn binding, alleviating Scn blockade of bacterial iron acquisition during infection ([Li et al., 2015]). This conclusion was based on a computational inverse docking screen, isothermal titration calorimetry (ITC) binding assays, and bacterial growth assays. However, c-di-GMP is not particularly complementary in shape to the Scn calyx, and lacks elements crucial for calyx binding, though its net negative charge does complement the overall positive charge of the calyx. Also, the reported micromolar KD by ITC for the Scn/c-di-GMP interaction was orders-of-magnitude weaker than the sub-nanomolar KDs of Scn for ferric complexes of bacterial CAM-type siderophores previously determined by FQ ([Abergel et al., 2006a], [Abergel et al., 2006b], [Goetz et al., 2002], [Hoette et al., 2008], [Miethke and Skerra, 2010]). [We noted that Li and coworkers also reported a discrepant micromolar KD for the Scn/Fe-ENT interaction by ITC.] However, this conundrum was easily resolved by a simple mixing experiment not previously performed (Fig. 7C). Colorless apo-Scn protein was premixed with a 25-fold molar excess of colorless c-di-GMP, at a concentration well above the reported micromolar KD, and allowed to equilibrate. Fe-ENT, which is colored a deep red, was then added at an equimolar ratio to Scn. […]

Scn [2] = molecular target: Scn; parameters: method as in Li et al., 2015; settings: ref Li et al., 2015; cited from earlier work

T1 sequence (P80188 21-198): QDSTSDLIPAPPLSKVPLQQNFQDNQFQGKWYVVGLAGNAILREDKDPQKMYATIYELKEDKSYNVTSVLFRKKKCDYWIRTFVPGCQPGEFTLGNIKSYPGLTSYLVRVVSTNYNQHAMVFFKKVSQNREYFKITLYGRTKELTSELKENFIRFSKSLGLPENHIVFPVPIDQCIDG

Nc1nc2c(ncn2[C@@H]2O[C@@H]3COP(=O)(O)O[C@H]4[C@@H](O)[C@H](n5cnc6c(=O)[nH]c(N)nc65)O[C@@H]4COP(=O)(O)O[C@H]3[C@H]2O)c(=O)[nH]1 [c-di-GMP, cyclic diguanylate monophosphate]
competition with Fe-ENT for Scn binding (Scn [1]): too weak to impede binding of ferric siderophores
KD by ITC (Scn [2]): micromolar
